Experiments:
[1] = Tracking fluorescence on reaction with H2O2 (FIG. 1d); type: biochemical; settings: H2O2 40 μM only
Source text: This figure is a graph showing results that are obtained by tracking fluorescence by allowing the compound 1d to react with H2O2 or superoxide produced enzymatically, a horizontal axis thereof represents a reaction time (second), and a vertical axis thereof represents a fluorescence intensity (au). In the figure, (a) represents a result obtained by a reaction in the presence of HPX and XO, (b) represents a result obtained by a reaction in the presence of HPX, XO and SOD, (c) represents a result obtained by a reaction under an anaerobic condition in the presence of HPX, XO and SOD, and (d) represents a result obtained by a reaction with only H2O2. The test results shown in FIG. 1 will be described below in further detail.

[2] = Fluorescent response to H2O2 (Table 1); type: biochemical; settings: relative fluorescence intensity, blank = 10; probe 21.3 μM, H2O2 50 μM, 37° C., 10 minutes
Description: (§1) Moreover, in other conditions than those of the above-described tests, reactivity of all of the compounds 1a to 1d with H2O2, other various kinds of nucleophilic agents, reducing agents and the like also was tested, respectively. More specifically, fluorescent responses of 1a to 1d with respect to a XO-HPX system, a XO-HPX-SOD system, H2O2, ascorbic acid, 1,4-hydroquinone, propylamine, diethylamine, glucose, esterase, a cytochrome P450 reductase+NADPH system, and a diaphorase+NADH system were measured, respectively. Operational processes thereof will be described below. Firstly, 1a to 1d and the above-described reagents were dissolved in HEPES of 10 mM having a pH of 7.4 so as to prepare solutions, respectively. Next, a 96 wellmicroplate was provided, where any of the solutions of 1a to 1d (25 μM, 170 μL) was poured into each of the wells, and furthermore, 30 μL of a blank solution or 30 μL of the solution of the reagent to be reacted therewith was added thereto. Final concentrations of the solutions in the wells were adjusted so that concentrations of the solutions of 1a to 1d respectively could be 21.3 μM, that of XO could be 13.1 mU/mL, those of HPX, H2O2, ascorbic acid, 1,4-hydroquinone, propylamine, diethylamine, glucose, NADPH and NADH respectively could be 50 μM, that of cytochrome P450 reductase could be 68 mU/mL, that of diaphorase could be 65 mU/mL, and that of esterase could be 0.5 U/mL, respectively. Then, after they reacted in the wells at 37° C. for 10 minutes, fluorescent responses were measured respectively. Fluorescence intensity measurement was conducted by using an ETC-272 Peltier thermostatted single cell holder (trade name) manufactured by JASCO Corporation or a SpectraMax GeminiEM fluorescence plate reader (trade name) manufactured by Molecular Devices Corporation provided with a FP-750 spectrofluorometer (trade name) manufactured by JASCO Corporation, and by setting excitation wavelengths and emission wavelengths so that those of 1a, 1b and 1c respectively could be 485 nm and 515 nm, and those of 1d respectively could be 511 nm and 540 nm.

[3] = Reactivity with superoxide and glutathione (FIG. 4); type: biochemical; settings: same conditions as 1-3 Superoxide-selectivity (2)
Description: as §1
The reactivity of each of the compounds 1d, 5a, 6a, 7 and 8a with respect to superoxide and glutathione (GSH) that is a kind of thiol was tested under the same conditions as those of [1-3. Superoxide-selectivity (2)] in Example 1. […] A vertical axis thereof denotes a fluorescence intensity, which is represented in % of control.

[4] = Capability as superoxide-detecting fluorescent probe (reactivity with superoxide); type: biochemical
Description: Then, by mainly using the compound 1d as a testing compound, the capability thereof as a superoxide-selective fluorescent probe was evaluated, and moreover, a test in a cell system also was conducted. These tests will be described below.
Thus, it is thought that each compound synthesized from a combination of: a phenolic colorant; and a 2,4-dinitrobenzenesulfonyl group, a 4-trifluoromethyl-2-nitrobenzenesulfonyl group or a 4-nitrobenzenesulfonyl group can be used as a superoxide-detecting fluorescent probe similarly. An example of the usage thereof will be shown in Scheme 8 below. Furthermore, it can be expected that a compound for a fluorescent probe having characteristics that are suitable for its application purpose can be designed and developed freely, by designing the compound of the present invention freely within the limitation defined by the general formula (I) and using the fluorescence mechanism developed by the inventors of the present invention, without being limited to the above-described combinations. Examples of the application purpose of the compound of the present invention are varied, including an application to a faintly coloring technique using superoxide.

[5] = Quantitativity of fluorescence response in the HPX/XO system, 96-well microplate assay; type: biochemical
Description: According to a 96 wellmicroplate assay, sensitivity and quantitativity of the fluorescence response of the probe (the compound 1d) in the HPX/XO system were tested. Specifically, a DMSO solution of 1d (10 mM) was diluted by 400-fold with HEPES (pH 7.4, 10 mM) so as to prepare a probe solution, and this probe solution (150 μL) was mixed with a HEPES solution of HPX (10 μL) and a HEPES solution of XO (0.26 U/mL, 10 μL), and was allowed to stand still at 37° C. for 10 minutes, and thereafter, a fluorescence intensity was measured. […] A correlation coefficient of this linear calibration curve was 1.000, and an inclination thereof was 0.58 au/pmol.
More specifically, an assay condition was the same as that in the above-described measurement, except providing a DMSO solution of 1d with a concentration of 5 mM, preparing a probe solution by diluting this DMSO solution by 400-fold with HEPES (pH 7.4, 10 mM), and using 180 μL of the probe solution. Fluorescence intensity measurement was conducted by using an ETC-272 Peltier thermostatted single cell holder (trade name) manufactured by JASCO Corporation or a SpectraMax GeminiEM fluorescence plate reader (trade name) manufactured by Molecular Devices Corporation provided with a FP-750 spectrofluorometer (trade name) manufactured by JASCO Corporation. As a result, a detection limit value of the concentration of HPX was 1.0 pmol (RSD, n=8; 2.9%), and a favorable linear calibration curve with a correlation coefficient of 0.9993 and an inclination of 0.80 au/pmol was obtained, with the concentration of HPX ranging from the detection limit value to 2.0 nmol. The inclination of this linear calibration curve is different from that of the above-described measurement, because of using the arbitrary units for the fluorescence intensities and the different measurement apparatuses.

Voltammetry measurement = type: physicochemical; settings: CH3CN—H2O (3:1) containing Et4NClO4
[6] = Fluorescent response to ascorbic acid (Table 1); type: biochemical; settings: relative fluorescence intensity, blank = 10; probe 21.3 μM, ascorbic acid 50 μM, 37° C., 10 minutes
Description: as §1

[7] = Fluorescent response to propylamine (Table 1); type: biochemical; settings: relative fluorescence intensity, blank = 10; probe 21.3 μM, propylamine 50 μM, 37° C., 10 minutes
Description: as §1

Q: For O=C1OC2(c3ccccc31)c1cc(F)c(OS(=O)(=O)c3ccc([N+](=O)[O-])cc3[N+](=O)[O-])c(F)c1Oc1c2cc(F)c(OS(=O)(=O)c2ccc([N+](=O)[O-])cc2[N+](=O)[O-])c1F [Compound 1d], which “increase of fluorescence intensity with H2O2, FIG. 1(d)” value [1] is on record?
A: small enough to be neglected

Q: And the “fluorescent response, H2O2” value [2]?
A: 11

Q: What about the “selectivity (specificity), superoxide versus glutathione, FIG. 4” value [3] of the same compound?
A: excellent superoxide-selectivity

Q: And the “fluorescence response by reacting with superoxide” value [4]?
A: particularly superior in sensitivity

Q: What about the “detection limit value of HPX” value ([5]; 10 mM DMSO solution diluted 400-fold, 150 μL probe solution, 37° C., 10 minutes) of the same compound?
A: 5.0 pmol

Q: And the “inclination of linear calibration curve” value ([5]; 10 mM DMSO solution diluted 400-fold, 150 μL, HPX from detection limit to 10.0 nmol)?
A: 0.58 au/pmol

Q: What about the “detection limit value of HPX” value ([5]; different apparatus, 5 mM DMSO solution diluted 400-fold, 180 μL probe solution) of the same compound?
A: 1.0 pmol

Q: And the “inclination of linear calibration curve” value ([5]; different apparatus, 5 mM DMSO solution, 180 μL, HPX from detection limit to 2.0 nmol)?
A: 0.80 au/pmol

Q: And the cathode response (Voltammetry measurement)?
A: about −0.5 V vs SCE

Q: And the “fluorescent response, ascorbic acid” value [6]?
A: 11

Q: And the “fluorescent response, propylamine” value [7]?
A: 10

From patent US7465814B2, “Sulfonate compound and fluorescent probe using the same” (priority 2003, dated 2008)
